Test results: patent US12110287B2, “Heterocyclic derivatives as Nav1.7 and Nav1.8 blockers” (RaQualia Pharma Inc., priority 2018, dated 2024)

Legend:
human Nav1.5 channels = target: T1, human Nav1.5 channels (Homo sapiens, UniProt Q14524); test: FRET assay (FDSS membrane potential); assay type: cell-based; settings: HEK293 cells expressing human Nav1.5 channels, read-out: activity (IC50) against Nav1.5
T1 construct: expressed in transfected cells; host or cells: HEK293 cells
Experimental: (§1) This screen is used to determine the effects of compounds on human Nav1.8, and human Nav1.5 channels, utilizing the cell imaging technology by Hamamatsu Photonics's Functional Drug Screening System (FDSS). The changes of membrane potential are monitored with fluorescent membrane potential dye pair, DiSBAC2(3) and CC2-DMPE, using FRET technology.
(§2) HEK293 cells expressing human Nav1.8 channels or human Nav1.5 channels are grown in T225 flasks, in a 5% CO2 humidified incubator to about 80% confluence. […]
(§3) The data is analyzed and reported as normalized ratios of intensities measured in the 465 nm and 575 nm channels. The process of calculating these ratios is performed as follows: FR=(FI465 Max/FI575 Min)−(FI465B/FI575B) [Math.2] • “FR”=fluorescence ratio • “FI465B”=the mean of fluorescence intensity as baseline (before Na^+ ligand addition) at 465 nm • “FI575B”=the mean of fluorescence intensity as baseline (before Na^+ ligand addition) at 575 nm • “FI465Max”=maximum fluorescence intensity at 465 nm after Na^+ stimulation • “FI575Min”=minimum fluorescence intensity at 575 nm after Na^+ stimulation Inhibition (%)=100−(FR of each well)−(median FR in positive controls)/(median FR in negative controls)−(median FR in positive controls)×100 [Math.3] […]

human Nav1.8 channels = target: T2, human Nav1.8 channels (Homo sapiens, UniProt Q9Y5Y9); test: FRET assay (FDSS membrane potential); assay type: cell-based; settings: HEK293 cells expressing human Nav1.8 channels, read-out: IC50 against Nav1.8
T2 construct: expressed in transfected cells; host or cells: HEK293 cells
T2 sequence (Q9Y5Y9 whole entry): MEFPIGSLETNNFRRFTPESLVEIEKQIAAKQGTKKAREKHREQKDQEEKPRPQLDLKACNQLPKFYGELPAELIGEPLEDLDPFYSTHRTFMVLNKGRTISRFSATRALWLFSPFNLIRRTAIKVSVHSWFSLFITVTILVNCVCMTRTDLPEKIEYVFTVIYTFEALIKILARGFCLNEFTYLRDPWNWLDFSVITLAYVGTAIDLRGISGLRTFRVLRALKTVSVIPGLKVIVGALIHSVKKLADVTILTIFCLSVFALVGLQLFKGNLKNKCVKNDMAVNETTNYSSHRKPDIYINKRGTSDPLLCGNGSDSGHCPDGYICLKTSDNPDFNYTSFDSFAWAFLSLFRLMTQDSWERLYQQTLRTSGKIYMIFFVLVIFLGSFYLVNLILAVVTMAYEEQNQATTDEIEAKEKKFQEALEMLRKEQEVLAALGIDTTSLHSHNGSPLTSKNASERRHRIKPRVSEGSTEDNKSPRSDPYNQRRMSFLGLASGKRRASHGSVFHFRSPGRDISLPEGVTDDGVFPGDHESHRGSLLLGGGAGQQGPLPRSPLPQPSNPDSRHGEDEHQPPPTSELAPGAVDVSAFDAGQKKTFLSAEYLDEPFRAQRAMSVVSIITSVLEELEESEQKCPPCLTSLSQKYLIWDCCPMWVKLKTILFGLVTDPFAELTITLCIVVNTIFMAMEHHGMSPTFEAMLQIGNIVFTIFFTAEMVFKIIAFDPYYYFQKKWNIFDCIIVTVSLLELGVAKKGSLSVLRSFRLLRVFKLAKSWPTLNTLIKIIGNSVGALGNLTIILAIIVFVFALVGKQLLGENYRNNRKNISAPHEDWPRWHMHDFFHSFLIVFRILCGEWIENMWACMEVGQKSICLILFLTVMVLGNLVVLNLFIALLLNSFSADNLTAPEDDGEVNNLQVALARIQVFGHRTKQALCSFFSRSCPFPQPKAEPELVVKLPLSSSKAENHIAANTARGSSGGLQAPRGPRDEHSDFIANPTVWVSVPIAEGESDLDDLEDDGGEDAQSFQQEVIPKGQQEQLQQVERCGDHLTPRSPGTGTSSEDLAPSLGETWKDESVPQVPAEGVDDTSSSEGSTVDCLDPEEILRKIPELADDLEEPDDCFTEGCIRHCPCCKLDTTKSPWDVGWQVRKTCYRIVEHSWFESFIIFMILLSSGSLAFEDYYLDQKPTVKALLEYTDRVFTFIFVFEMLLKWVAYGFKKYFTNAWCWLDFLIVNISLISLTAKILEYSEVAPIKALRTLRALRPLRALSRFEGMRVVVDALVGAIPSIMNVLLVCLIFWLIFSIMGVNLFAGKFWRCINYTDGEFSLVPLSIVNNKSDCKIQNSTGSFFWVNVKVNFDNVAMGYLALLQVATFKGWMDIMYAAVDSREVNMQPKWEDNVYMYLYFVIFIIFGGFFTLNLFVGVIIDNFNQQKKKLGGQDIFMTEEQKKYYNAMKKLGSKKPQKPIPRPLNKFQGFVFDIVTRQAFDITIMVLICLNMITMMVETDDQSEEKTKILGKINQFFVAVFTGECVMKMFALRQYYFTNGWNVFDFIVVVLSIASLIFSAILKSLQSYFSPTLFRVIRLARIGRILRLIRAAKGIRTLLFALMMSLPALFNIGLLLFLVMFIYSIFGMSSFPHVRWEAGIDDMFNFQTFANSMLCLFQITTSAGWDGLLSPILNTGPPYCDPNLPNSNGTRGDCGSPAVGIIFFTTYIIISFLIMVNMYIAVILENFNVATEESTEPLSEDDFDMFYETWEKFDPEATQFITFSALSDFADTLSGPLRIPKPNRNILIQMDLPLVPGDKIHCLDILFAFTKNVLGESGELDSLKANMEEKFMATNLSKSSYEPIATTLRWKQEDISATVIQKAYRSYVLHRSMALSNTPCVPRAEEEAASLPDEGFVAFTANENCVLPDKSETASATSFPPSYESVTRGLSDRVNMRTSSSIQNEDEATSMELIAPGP
Experimental: as §1, §2, §3

T1 sequence (Q14524 whole entry): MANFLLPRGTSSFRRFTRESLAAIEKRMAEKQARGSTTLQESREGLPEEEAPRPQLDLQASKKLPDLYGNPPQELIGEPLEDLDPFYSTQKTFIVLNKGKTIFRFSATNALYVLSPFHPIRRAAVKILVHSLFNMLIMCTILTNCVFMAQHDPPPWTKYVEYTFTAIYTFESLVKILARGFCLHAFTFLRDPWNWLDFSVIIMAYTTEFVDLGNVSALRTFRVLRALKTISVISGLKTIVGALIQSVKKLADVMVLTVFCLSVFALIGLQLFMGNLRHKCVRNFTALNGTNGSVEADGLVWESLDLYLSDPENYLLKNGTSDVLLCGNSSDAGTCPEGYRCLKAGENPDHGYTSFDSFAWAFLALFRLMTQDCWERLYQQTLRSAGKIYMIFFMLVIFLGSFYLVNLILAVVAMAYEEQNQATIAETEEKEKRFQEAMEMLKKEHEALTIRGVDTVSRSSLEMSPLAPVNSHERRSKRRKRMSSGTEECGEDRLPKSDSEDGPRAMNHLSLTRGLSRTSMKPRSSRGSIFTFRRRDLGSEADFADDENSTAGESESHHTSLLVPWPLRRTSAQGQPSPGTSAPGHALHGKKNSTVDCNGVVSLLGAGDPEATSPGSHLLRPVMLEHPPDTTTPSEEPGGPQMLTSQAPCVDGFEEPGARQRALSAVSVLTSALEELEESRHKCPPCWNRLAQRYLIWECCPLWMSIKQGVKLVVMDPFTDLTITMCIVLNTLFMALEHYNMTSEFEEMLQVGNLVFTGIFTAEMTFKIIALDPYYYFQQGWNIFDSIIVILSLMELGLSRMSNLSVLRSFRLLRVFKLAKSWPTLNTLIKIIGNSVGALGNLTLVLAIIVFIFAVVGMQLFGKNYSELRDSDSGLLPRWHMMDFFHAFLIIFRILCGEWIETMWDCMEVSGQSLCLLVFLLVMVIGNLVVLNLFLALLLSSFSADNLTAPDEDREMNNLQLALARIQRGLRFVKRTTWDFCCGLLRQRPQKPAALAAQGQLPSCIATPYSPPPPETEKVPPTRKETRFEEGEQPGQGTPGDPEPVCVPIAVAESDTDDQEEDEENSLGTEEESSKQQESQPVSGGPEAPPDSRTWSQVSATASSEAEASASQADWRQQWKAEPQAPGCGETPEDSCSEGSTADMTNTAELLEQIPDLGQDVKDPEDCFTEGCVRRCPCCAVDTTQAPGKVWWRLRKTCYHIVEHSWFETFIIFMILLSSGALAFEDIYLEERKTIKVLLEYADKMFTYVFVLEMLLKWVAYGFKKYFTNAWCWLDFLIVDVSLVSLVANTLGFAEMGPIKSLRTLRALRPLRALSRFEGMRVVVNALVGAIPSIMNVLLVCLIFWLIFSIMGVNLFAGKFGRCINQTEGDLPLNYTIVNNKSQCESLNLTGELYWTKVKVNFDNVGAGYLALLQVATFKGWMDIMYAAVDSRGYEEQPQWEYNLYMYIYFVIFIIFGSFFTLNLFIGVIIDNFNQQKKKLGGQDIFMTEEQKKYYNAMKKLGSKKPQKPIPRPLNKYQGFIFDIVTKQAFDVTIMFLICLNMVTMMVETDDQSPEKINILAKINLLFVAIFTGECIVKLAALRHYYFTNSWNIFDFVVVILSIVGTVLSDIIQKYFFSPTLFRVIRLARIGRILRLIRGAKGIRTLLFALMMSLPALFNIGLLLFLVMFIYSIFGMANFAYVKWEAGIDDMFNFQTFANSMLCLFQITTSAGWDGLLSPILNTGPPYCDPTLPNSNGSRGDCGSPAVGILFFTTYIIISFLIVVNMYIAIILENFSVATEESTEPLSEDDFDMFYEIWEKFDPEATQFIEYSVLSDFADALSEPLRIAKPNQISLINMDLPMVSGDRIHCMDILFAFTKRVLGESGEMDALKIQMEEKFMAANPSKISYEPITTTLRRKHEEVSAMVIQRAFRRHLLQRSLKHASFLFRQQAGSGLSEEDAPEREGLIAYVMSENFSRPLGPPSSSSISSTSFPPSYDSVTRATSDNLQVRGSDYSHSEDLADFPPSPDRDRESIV

- IC50 (human Nav1.8 channels): 2 µM
SMILES: O=C(N[C@@H]1CCCN(c2ncc(C(F)(F)F)cc2Cl)C1)c1ccnc(NC(=O)C2CC2)c1 [Example 7]
- IC50 (human Nav1.5 channels): > 30 µM
